Laboratory results from patent US8987312B2, “Alpha-keto heterocycles as FAAH inhibitors” (The Scripps Research Institute, priority 2008, dated 2015).
Like-named read-outs stand apart in the source and are kept apart here.

Legend:
Format in all cases: biochemical
[1] = molecular target: T1, purified recombinant rat FAAH (Rattus norvegicus, UniProt P97612); experiment: FAAH inhibition enzyme assay (14C-oleamide hydrolysis, Dixon plot), rat enzyme
T1 construct: The truncated rat FAAH (rFAAH) was expressed in E. coli and purified as described; made in house; host or cells: Escherichia coli
T1 sequence (P97612 30-579 limits assumed): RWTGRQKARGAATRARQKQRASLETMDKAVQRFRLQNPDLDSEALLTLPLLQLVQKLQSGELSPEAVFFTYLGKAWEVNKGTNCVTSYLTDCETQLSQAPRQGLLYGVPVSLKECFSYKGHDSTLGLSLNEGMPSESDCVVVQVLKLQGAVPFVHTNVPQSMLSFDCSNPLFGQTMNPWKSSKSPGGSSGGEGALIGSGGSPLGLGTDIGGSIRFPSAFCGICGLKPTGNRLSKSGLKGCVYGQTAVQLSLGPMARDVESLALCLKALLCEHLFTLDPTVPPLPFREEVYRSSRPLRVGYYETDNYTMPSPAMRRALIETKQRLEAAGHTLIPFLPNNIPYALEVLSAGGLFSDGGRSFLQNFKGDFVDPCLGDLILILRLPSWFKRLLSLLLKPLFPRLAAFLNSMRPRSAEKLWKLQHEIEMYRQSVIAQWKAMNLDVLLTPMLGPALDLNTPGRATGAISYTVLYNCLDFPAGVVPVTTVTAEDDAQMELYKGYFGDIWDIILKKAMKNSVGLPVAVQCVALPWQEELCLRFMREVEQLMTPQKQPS
Excerpt: The purified recombinant rFAAH was used in the inhibition assays unless otherwise indicated.
The ^14C-labeled oleamide (substrate) and oleic acid (product) were extracted with EtOAc and analyzed by TLC.

[2] = molecular target: T2, triacylglycerol hydrolase (TGH) (Mus musculus, UniProt Q8VCT4); experiment: Activity based protein profiling (proteome-wide selectivity screening, FP-Rh), TGH; settings: Table 4; for IC50: activity based protein profiling; for TGH selectivity (value in parentheses): ratio TGH IC50 / FAAH IC50 (fold selectivity for FAAH)
T2 construct: with FP-Rh in brain and heart membrane proteome; from tissue; host or cells: brain and heart membrane proteome
T2 sequence (Q8VCT4 19-565): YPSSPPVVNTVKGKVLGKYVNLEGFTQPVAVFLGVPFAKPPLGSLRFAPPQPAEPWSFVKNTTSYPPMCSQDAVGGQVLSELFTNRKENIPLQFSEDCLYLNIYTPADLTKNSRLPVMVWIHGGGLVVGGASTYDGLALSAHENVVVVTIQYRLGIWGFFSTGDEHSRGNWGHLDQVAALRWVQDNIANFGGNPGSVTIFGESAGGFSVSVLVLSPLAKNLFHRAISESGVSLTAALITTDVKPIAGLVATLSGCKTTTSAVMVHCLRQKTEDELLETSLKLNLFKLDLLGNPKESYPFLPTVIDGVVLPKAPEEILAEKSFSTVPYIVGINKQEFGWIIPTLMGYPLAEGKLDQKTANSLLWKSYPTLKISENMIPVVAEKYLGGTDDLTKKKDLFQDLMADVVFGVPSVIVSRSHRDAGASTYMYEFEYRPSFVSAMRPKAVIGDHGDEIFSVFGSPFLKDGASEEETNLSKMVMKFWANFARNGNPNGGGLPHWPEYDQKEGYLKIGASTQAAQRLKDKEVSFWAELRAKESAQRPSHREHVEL
Excerpt: (§1) Enzyme targets such as FAAH, KIAA1363, and TGH are labeled at the left margin.

FAAH = molecular target: T3, FAAH (Mus musculus, UniProt O08914); experiment: Activity based protein profiling (proteome-wide selectivity screening, FP-Rh), FAAH; settings: Table 4
T3 construct: with FP-Rh in brain and heart membrane proteome; from tissue; host or cells: brain and heart membrane proteome
T3 sequence (O08914 1-579): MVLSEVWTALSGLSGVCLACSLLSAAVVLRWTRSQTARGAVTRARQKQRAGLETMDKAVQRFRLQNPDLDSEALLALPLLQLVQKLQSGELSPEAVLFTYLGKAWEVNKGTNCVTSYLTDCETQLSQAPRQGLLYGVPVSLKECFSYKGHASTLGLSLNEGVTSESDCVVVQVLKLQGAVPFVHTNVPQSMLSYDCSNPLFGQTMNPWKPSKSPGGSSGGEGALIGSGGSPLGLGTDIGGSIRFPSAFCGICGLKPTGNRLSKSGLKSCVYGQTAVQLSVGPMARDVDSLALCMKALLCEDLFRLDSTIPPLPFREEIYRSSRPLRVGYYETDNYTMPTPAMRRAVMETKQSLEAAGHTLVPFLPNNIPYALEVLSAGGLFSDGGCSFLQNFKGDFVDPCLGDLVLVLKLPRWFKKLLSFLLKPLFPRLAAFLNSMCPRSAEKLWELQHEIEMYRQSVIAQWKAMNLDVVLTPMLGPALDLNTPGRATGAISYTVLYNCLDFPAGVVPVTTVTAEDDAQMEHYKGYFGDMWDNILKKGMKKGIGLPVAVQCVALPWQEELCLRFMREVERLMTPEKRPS
Excerpt: as §1

KIAA1363 = molecular target: T4, KIAA1363 (Mus musculus, UniProt Q8BLF1); experiment: Activity based protein profiling (proteome-wide selectivity screening, FP-Rh), KIAA1363; settings: Table 4; for IC50: activity based protein profiling; for KIAA1363 selectivity (value in parentheses): ratio KIAA1363 IC50 / FAAH IC50 (fold selectivity for FAAH)
T4 construct: with FP-Rh in brain and heart membrane proteome; from tissue; host or cells: brain and heart membrane proteome
T4 sequence (Q8BLF1 1-408): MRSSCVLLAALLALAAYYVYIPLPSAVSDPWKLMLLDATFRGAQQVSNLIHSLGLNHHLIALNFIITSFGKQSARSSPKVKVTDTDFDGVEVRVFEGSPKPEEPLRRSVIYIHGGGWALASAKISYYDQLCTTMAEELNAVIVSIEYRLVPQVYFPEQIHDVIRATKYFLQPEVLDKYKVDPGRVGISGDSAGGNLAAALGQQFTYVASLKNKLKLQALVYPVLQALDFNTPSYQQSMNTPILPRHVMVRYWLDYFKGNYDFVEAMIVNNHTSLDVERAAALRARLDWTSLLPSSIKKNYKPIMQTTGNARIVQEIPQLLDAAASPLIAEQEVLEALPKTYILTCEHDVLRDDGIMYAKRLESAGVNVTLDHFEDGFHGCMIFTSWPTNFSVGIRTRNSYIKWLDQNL
Excerpt: as §1

[3] = Table 2, rat FAAH, pH 9 assay conditions, read-out: Ki

Compound	Ki [1, 3] [nM]	Ki ([1]; Table 4, read-out: FAAH Ki) [nM]	IC50 [2] [nM]	TGH selectivity (value in parentheses) [2]	IC50 (FAAH) [nM]	IC50 (KIAA1363) [nM]	KIAA1363 selectivity (value in parentheses) (KIAA1363)	Ki ([1]; rat FAAH, pH 9, read-out: Ki) [nM]
O=C(CCCCCCc1ccccc1)c1ncc(-c2ccco2)o1 [7c]	12	12	300	4	80	> 100000	> 1250	–
O=C(CCCCCCc1ccccc1)c1ncc(-c2cccs2)o1 [7d]	55	55	200	0.25	800	> 100000	> 125	–
O=C(CCCCCCc1ccccc1)c1ncc(-c2ccccc2)o1 [7e]	–	–	700	–	900	> 100000	–	–
COC(=O)c1cccc(-c2cnc(C(=O)CCCCCCc3ccccc3)o2)n1 [7f]	–	–	1000	–	170	40000	–	–
O=C(CCCCCCc1ccccc1)c1nnco1 [8a, 1-(1,3,4-Oxadiazol-2-yl)-7-phenylheptan-1-one]	1	1	25	1.5	16	> 100000	> 6250	–
COC(=O)c1cccc(-c2nnc(C(=O)CCCCCCc3ccccc3)o2)n1 [8f, Methyl 6-(5-(7-Phenylheptanoyl)-1,3,4-oxadiazol-2-yl)-picolinate]	3	3	40	5	8	> 100000	> 12500	–
O=C(CCCCCCc1ccccc1)c1ncno1 [9a, 1-(1,2,4-Oxadiazol-5-yl)-7-phenylheptan-1-one]	1	1	0.7	0.18	4	25000	6250	–
COC(=O)c1cccc(-c2noc(C(=O)CCCCCCc3ccccc3)n2)n1 [9f, Methyl 6-(5-(7-Phenylheptanoyl)-1,2,4-oxadiazol-3-yl)-picolinate]	3	3	150	50	3	40000	13000	–
O=C(CCCCCCc1ccccc1)c1ncon1 [10a, 1-(1,2,4-Oxadiazol-3-yl)-7-phenylheptan-1-one]	7	7	10	0.02	500	> 100000	> 200	–
COC(=O)c1nc(C(=O)CCCCCCc2ccccc2)no1 [10h, Methyl 3-(7-Phenylheptanoyl)-1,2,4-oxadiazole-5-carboxylate]	–	7	200	20	10	> 100000	> 10000	< 10
O=C(CCCCCCc1ccccc1)c1nccs1 [11a, 7-Phenyl-1-(thiazol-2-yl)-heptan-1-one]	800	800	–	–	> 100000	> 100000	–	–
COC(=O)c1cccc(-c2cnc(C(=O)CCCCCCc3ccccc3)s2)n1 [11f, Methyl 6-(2-(7-Phenylheptanoyl)-thiazol-5-yl)-picolinate]	500	500	40000	< 0.4	> 100000	> 100000	–	–
O=C(CCCCCCc1ccccc1)c1nncs1 [12a, 7-Phenyl-1-(1,3,4-thiadiazol-2-yl)-heptan-1-one]	1.4	1.4	100	–	300	> 100000	> 330	–
O=C(CCCCCCc1ccccc1)c1cccnn1 [13a, 7-Phenyl-1-(pyridazin-3-yl)-heptan-1-one]	140	140	5000	1	3000	> 100000	> 30	–
COC(=O)c1cccc(-c2ccc(C(=O)CCCCCCc3ccccc3)nn2)n1 [13f, Methyl 6-(6-(7-Phenylheptanoyl)-pyridazin-3-yl)-picolinate]	110	110	> 100000	> 10	10000	> 100000	> 10	–
N#Cc1cccc(-c2ccc(C(=O)CCCCCCc3ccccc3)nn2)n1 [13h, 6-(6-(7-Phenylheptanoyl)-pyridazin-3-yl)-picolinonitrile]	–	390	12000	1	13000	> 100000	> 8	–
